The nature of data set [1]: Cytotoxicity against human Raji cells assessed as cell viability at 1000 molar ratio/TPA. Format: cell-based. The following applies: read-out: Activity.
The test system of data set [2] is Raji. Put plainly: Inhibition of 12-O-tetradecanoylphorbol 13-acetate-induced Epstein-Barr virus early antigen activation in human Raji cells assessed as EA induction at 500 mol ratio relative to TPA; values are per cent of control. The following applies: human gammaherpesvirus 4.
Data set [3] relates to Raji. Put plainly: Inhibition of 12-O-tetradecanoylphorbol 13-acetate-induced Epstein-Barr virus early antigen activation in human Raji cells assessed as EA induction at 10 mol ratio relative to TPA; values are per cent of control. The following applies: human gammaherpesvirus 4.
Data set [4] relates to Raji. The experiment in a line: Inhibition of 12-O-tetradecanoylphorbol 13-acetate-induced Epstein-Barr virus early antigen activation in human Raji cells assessed as EA induction at 1000 mol ratio relative to TPA; values are per cent of control. The following applies: human gammaherpesvirus 4.
Data set [5] relates to Raji. Put plainly: Inhibition of 12-O-tetradecanoylphorbol 13-acetate-induced Epstein-Barr virus early antigen activation in human Raji cells assessed as EA induction at 100 mol ratio relative to TPA; values are per cent of control. The following applies: human gammaherpesvirus 4.

In the case of `C=C[C@]1(C)CC[C@@H]2[C@@]3(C)CC[C@@H](C)C(=C)[C@@H]3CC[C@@]2(C)O1`, the viability at 1000 molar ratio/TPA in data set [1] is 70%. The level, % of control in the data set with Raji [2] stood at 38.8%; with Raji [3] it was 100%; with Raji [4], 5.1%; with Raji [5], 77.1%.

For `C=C[C@]1(C)CC[C@@H]2[C@@]3(C)CCCC(C)(C)[C@@H]3CC[C@@]2(C)O1`, the viability at 1000 molar ratio/TPA in data set [1] was determined as 70%. Also, the level, % of control in the data set on Raji [2] is 35.9%; with Raji [3], 100%; in the data set on Raji [4], 4.3%; in the data set on Raji [5] it was 70.4%.

For `CC(C)c1ccc2c(c1)C(=O)C[C@H]1C(C)(C)CCC[C@]21C`, in data set [1], the viability at 1000 molar ratio/TPA is 70%. For the same molecule, the level, % of control was 30.2% in the data set on Raji [2], 95% in the data set on Raji [3], 0% in the data set with Raji [4] and 74.7% with Raji [5].

Turning to `CC(=O)/C=C/[C@@H]1[C@@]2(C)CCCC(C)(C)[C@@H]2CC[C@@]1(C)O`, the viability at 1000 molar ratio/TPA in data set [1] came out at 60%. Further, the level, % of control with Raji [2] was determined as 20.7%; in the data set with Raji [3], 89.3%; in the data set on Raji [4] it was 0%; with Raji [5], 68.4%.

`C=C1CCC[C@]2(C)c3ccc(C(C)C)cc3C(=O)C[C@@H]12`: the viability at 1000 molar ratio/TPA in data set [1] turned out to be 70%. In addition, the level, % of control with Raji [2] worked out at 31.6%; in the data set with Raji [3], 96.1%; in the data set on Raji [4] it was 0%; in the data set on Raji [5] it was 75.9%.

As for `CC(C)c1cc2c(cc1O)[C@@]1(C)CCC[C@@](C)(C(=O)O)[C@@H]1CC2`, the viability at 1000 molar ratio/TPA in data set [1] was 70%. Also, the level, % of control in the data set on Raji [2] is 28%; in the data set on Raji [3], 95.8%; in the data set with Raji [4], 2.7%; in the data set with Raji [5] it was 66.4%.

Turning to `CC(C)c1ccc2c(c1)CC[C@H]1[C@](C)(C(=O)O)CCC[C@]1(C)O2`, the viability at 1000 molar ratio/TPA in data set [1] worked out at 60%. Moreover, the level, % of control in the data set with Raji [2] stood at 52.7%; with Raji [3], 96.9%; in the data set with Raji [4] it was 10.2%; in the data set with Raji [5], 85%.

Take `COC(=O)[C@]1(C)CCC[C@]2(C)c3ccc(C(C)(C)O)cc3C(=O)C[C@@H]12`: in data set [1], the viability at 1000 molar ratio/TPA is 70%. For the same molecule, the level, % of control worked out at 28.1% with Raji [2], 95% in the data set on Raji [3], 0% with Raji [4] and 72.9% with Raji [5].

As to `CC(C)c1ccc2c(c1)CC[C@H]1[C@](C)(C(=O)O)CCC[C@]21C` [DEHYDROABIETIC ACID], the viability at 1000 molar ratio/TPA in data set [1] is 70%. In addition, the level, % of control in the data set with Raji [2] was 30.6%; in the data set on Raji [3] it was 95.2%; in the data set with Raji [4], 0%; in the data set on Raji [5], 75%.

With `CC1=C(/C=C/C(C)=C/C=C/C(C)=C/C=C/C=C(C)/C=C/C=C(C)/C=C/C2=C(C)CCCC2(C)C)C(C)(C)CCC1`, the level, % of control in the data set with Raji [2] was 34%; with Raji [3], 100%; with Raji [4], 9%; in the data set on Raji [5] it was 82%.

With `CC(C)[C@]12C=C3CC[C@H]4[C@](C)(C(=O)O)CCC[C@]4(C)[C@]3(CC1)OO2`, in data set [1], the viability at 1000 molar ratio/TPA came to 70%. Further, the level, % of control in the data set on Raji [2] was determined as 24.2%; in the data set on Raji [3], 90.5%; in the data set on Raji [4] it was 0%; with Raji [5] it was 63.7%.

For the origin of these results see ChEMBL document CHEMBL1142631, “Potential antitumor-promoting diterpenoids from the stem bark of Picea glehni” (J Nat Prod, 2000).
